According to patent US9512087B2, “Hybrid molecules containing pharmacophores of fluconazole as antifungal agents and their preparation” (Council for Scientific & Industrial Research, priority 2011, dated 2016):
Values after ≈ are worked out from the molar mass of the structure shown.

What was measured:
Test in all cases: Antifungal MIC, broth dilution
[1] = system: C. tropicalis ATCC 750; assay type: cell-based; conditions: end point 48 hours; for MIC50: Candida tropicalis, ATCC750, RPMI 1640 with MOPS, read-out: Ct01 MIC50; for Ct01 MIC50: RPMI 1640 with MOPS
[2] = system: F. proliferatum ATCC 10052; assay type: cell-based, Fusarium proliferatum; conditions: end point 48 hours; for MIC50: Fusarium proliferatum, ATCC10052, RPMI 1640 with MOPS, read-out: Fp01 MIC50; for Fp01 MIC50: RPMI 1640 with MOPS
Procedure: (§1) The compounds of Formula 1 were tested for antifungal activity against Candida albicans, Aspergillus niger and Fusarium proliferatum. In vitro evaluation of antifungal activity was performed by determining the minimum inhibitory concentration (MIC) following standard methods (CLSI: Reference method for broth dilution antifungal susceptibility testing of yeasts; Approved standard, second edition M27-A2, 2002; CLSI: Reference method for broth dilution antifungal susceptibility testing of filamentous fungi; Approved standard M38-A, 2002). Anti-fungal susceptibility testing of these anti-fungal compounds was done by broth dilution method using RPMI 1640 medium with MOPS buffer. Known anti-fungal agents like fluconazole and amphotericin-B were used as positive control. End points were determined after 48 hours visually and by using spectrophotometer wherever necessary. Different dilutions were tried and various sets of experiments performed. The activity parameters are enumerated in Table 5.

[3] = system: C. krusei ATCC 6258; assay type: cell-based; conditions: end point 48 hours; for MIC50: Pichia kudriavzevii, ATCC6258, RPMI 1640 with MOPS, read-out: Ck01 MIC50; for Ck01 MIC50: RPMI 1640 with MOPS
[4] = system: A. fumigatus ATCC 46645; assay type: cell-based; conditions: end point 48 hours; for MIC50: Aspergillus fumigatus, ATCC46645, RPMI 1640 with MOPS, read-out: Afm01 MIC50; for Afm01 MIC50: RPMI 1640 with MOPS
[5] = system: C. albicans ATCC 24433; assay type: cell-based, Candida albicans; conditions: end point 48 hours; for MIC80 / MIC50: Candida albicans, ATCC24433, RPMI 1640 with MOPS; for MIC80: read-out: Ca01 A: MIC80; for MIC50: read-out: Ca01 B: MIC50; for Ca01 A: MIC80 / Ca01 B: MIC50: RPMI 1640 with MOPS
Procedure: as §1

[6] = system: C. glabrata ATCC 90030; assay type: cell-based; conditions: end point 48 hours; for MIC50: Nakaseomyces glabratus, ATCC90030, RPMI 1640 with MOPS, read-out: Cg01 MIC50; for Cg01 MIC50: RPMI 1640 with MOPS
[7] = system: A. niger ATCC 16404; assay type: cell-based, Aspergillus niger; conditions: end point 48 hours; for MIC50: Aspergillus niger, ATCC16404, RPMI 1640 with MOPS, read-out: An01 MIC50; for An01 MIC50: RPMI 1640 with MOPS
Procedure: as §1

[8] = system: C. neoformans ATCC 34664; assay type: cell-based; conditions: end point 48 hours; for MIC50: Cryptococcus neoformans, ATCC34664, RPMI 1640 with MOPS, read-out: Cn01 MIC50; for Cn01 MIC50: RPMI 1640 with MOPS

| MIC50 [1] | MIC50 [2] | MIC50 [3] | MIC50 [4] | MIC80 [5] | MIC50 [5] | MIC50 [6] | MIC50 [7] | MIC50 [8] | Ct01 MIC50 [1] | Fp01 MIC50 [2] | Ck01 MIC50 [3] | Afm01 MIC50 [4] | Ca01 A: MIC80 [5] | Ca01 B: MIC50 [5] | Cg01 MIC50 [6] | An01 MIC50 [7] | Cn01 MIC50 [8] | Compound |
| --- | --- | --- | --- | --- | --- | --- | --- | --- | --- | --- | --- | --- | --- | --- | --- | --- | --- | --- |
| 0.5 µg/mL (≈ 1.01 µM) | > 4 µg/mL | 2 µg/mL (≈ 4.03 µM) | > 4 µg/mL | 0.25 µg/mL (≈ 0.504 µM) | 0.5 µg/mL (≈ 1.01 µM) | 0.5 µg/mL (≈ 1.01 µM) | > 4 µg/mL | 0.5 µg/mL (≈ 1.01 µM) |  |  |  |  |  |  |  |  |  | O=C(/C=C/c1ccc(Cl)cc1)c1ccc(OCC(O)(Cn2cncn2)c2ccc(F)cc2F)cc1 (stereo not drawn) [Compound 1A-6] |
| 1 µg/mL (≈ 2.03 µM) | > 4 µg/mL | 4 µg/mL (≈ 8.14 µM) | 8 µg/mL (≈ 16.3 µM) | 0.25 µg/mL (≈ 0.509 µM) | 0.12 µg/mL (≈ 0.244 µM) | 0.25 µg/mL (≈ 0.509 µM) | > 4 µg/mL | 1 µg/mL (≈ 2.03 µM) |  |  |  |  |  |  |  |  |  | COc1ccc(C(=O)/C=C/c2ccc(OCC(O)(Cn3cncn3)c3ccc(F)cc3F)cc2)cc1 (stereo not drawn) [Compound 1A-20] |
| 8 µg/mL (≈ 19.3 µM) | > 64 µg/mL | 32 µg/mL (≈ 77 µM) | > 64 µg/mL | 0.5 µg/mL (≈ 1.2 µM) | 0.25 µg/mL (≈ 0.602 µM) | 1 µg/mL (≈ 2.41 µM) | > 64 µg/mL | 16 µg/mL (≈ 38.5 µM) |  |  |  |  |  |  |  |  |  | COc1cc(/C=C/C=O)ccc1OCC(O)(Cn1cncn1)c1ccc(F)cc1F (stereo not drawn) [Compound 1A-29] |
| 2 µg/mL (≈ 4.07 µM) | > 4 µg/mL | > 4 µg/mL | > 4 µg/mL | 1 µg/mL (≈ 2.03 µM) | 0.5 µg/mL (≈ 1.02 µM) | 1 µg/mL (≈ 2.03 µM) | > 4 µg/mL | 2 µg/mL (≈ 4.07 µM) |  |  |  |  |  |  |  |  |  | COc1ccc(/C=C/C(=O)c2ccc(OC[C@@](O)(Cn3cncn3)c3ccc(F)cc3F)cc2)cc1 [S-(+)-1A-2] |
| 2 µg/mL (≈ 4.07 µM) | > 8 µg/mL | > 8 µg/mL | > 8 µg/mL | 0.5 µg/mL (≈ 1.02 µM) | 0.25 µg/mL (≈ 0.509 µM) | 0.5 µg/mL (≈ 1.02 µM) | > 8 µg/mL | 8 µg/mL (≈ 16.3 µM) |  |  |  |  |  |  |  |  |  | COc1ccccc1/C=C/C(=O)c1ccc(OCC(O)(Cn2cncn2)c2ccc(F)cc2F)cc1 (stereo not drawn) [Compound 1A-3] |
|  |  |  |  |  |  |  |  |  | 0.5 µg/mL | 2 µg/mL | 0.5 µg/mL | 0.5 µg/mL | 0.25 µg/mL | 0.25 µg/mL | 0.25 µg/mL | 0.25 µg/mL | 0.5 µg/mL | C[C@@H]1[C@H](O)[C@@H](C)/C=C/C=C/C=C/C=C/C=C/C=C/C=C/[C@H](O[C@@H]2O[C@H](C)[C@@H](O)[C@H](N)[C@@H]2O)C[C@@H]2O[C@](O)(C[C@@H](O)C[C@@H](O)[C@H](O)CC[C@@H](O)C[C@@H](O)CC(=O)O[C@H]1C)C[C@H](O)[C@H]2C(=O)O [AMB, amphotericin-B, reference compound] |
|  |  |  |  |  |  |  |  |  | 0.25 µg/mL | >16 µg/mL | 1 µg/mL | 16 µg/mL | 0.06 µg/mL | 0.015 µg/mL | 0.03 µg/mL | 8 µg/mL | 2 µg/mL | O=C(/C=C/c1ccc(OCC(O)(Cn2cncn2)c2ccc(F)cc2F)cc1)C1CC1 (stereo not drawn) [Compound 1A-28] |
| 1 µg/mL (≈ 3.27 µM) | > 128 µg/mL | 32 µg/mL (≈ 104 µM) | > 128 µg/mL | 1 µg/mL (≈ 3.27 µM) | 0.25 µg/mL (≈ 0.816 µM) | 1 µg/mL (≈ 3.27 µM) | > 128 µg/mL | 2 µg/mL (≈ 6.53 µM) |  |  |  |  |  |  |  |  |  | OC(Cn1cncn1)(Cn1cncn1)c1ccc(F)cc1F [FLU, fluconazole] |
| 2 µg/mL (≈ 4.03 µM) | > 4 µg/mL | 4 µg/mL (≈ 8.07 µM) | > 4 µg/mL | 2 µg/mL (≈ 4.03 µM) | 1 µg/mL (≈ 2.02 µM) | 0.5 µg/mL (≈ 1.01 µM) | > 4 µg/mL | 2 µg/mL (≈ 4.03 µM) |  |  |  |  |  |  |  |  |  | O=C(/C=C/c1ccc(Cl)cc1)c1ccc(OC[C@@](O)(Cn2cncn2)c2ccc(F)cc2F)cc1 [S-(+)-1A-6, S-(+)-(E)-3-(4-chlorophenyl)-1-(4-(2-(2,4-difluorophenyl)-2-hydroxy-3-(1H-1,2,4-triazol-1-yl)propoxy)phenyl)prop-2-en-1-one] |
| 0.5 µg/mL (≈ 0.977 µM) | > 4 µg/mL | 1 µg/mL (≈ 1.95 µM) | > 4 µg/mL | 0.5 µg/mL (≈ 0.977 µM) | 0.25 µg/mL (≈ 0.489 µM) | 0.5 µg/mL (≈ 0.977 µM) | > 4 µg/mL | 0.5 µg/mL (≈ 0.977 µM) |  |  |  |  |  |  |  |  |  | O=C(/C=C/c1ccc2ccccc2c1)c1ccc(OCC(O)(Cn2cncn2)c2ccc(F)cc2F)cc1 (stereo not drawn) [Compound 1A-14] |
| 0.25 µg/mL (≈ 0.509 µM) | > 4 µg/mL | 4 µg/mL (≈ 8.14 µM) | > 4 µg/mL | 0.12 µg/mL (≈ 0.244 µM) | 0.06 µg/mL (≈ 0.122 µM) | 0.25 µg/mL (≈ 0.509 µM) | 4 µg/mL (≈ 8.14 µM) | 1 µg/mL (≈ 2.03 µM) |  |  |  |  |  |  |  |  |  | COc1ccc(/C=C/C(=O)c2ccc(OCC(O)(Cn3cncn3)c3ccc(F)cc3F)cc2)cc1 (stereo not drawn) [Compound 1A-2] |
